According to the supplement of paper PMC10307832:

Experiments:
Assay in all cases: relative viability (nuclei count vs DMSO), 5 days (fraction); higher = more cells survive
[1] = compound: CCC1=CN=CN=C1N2CCN(CC2)CC3=NC4=C(N3)C=C(C=C4)C(F)(F)F + CC(=O)Nc1cccc(-n2c(=O)n(C3CC3)c(=O)c3c(Nc4ccc(I)cc4F)n(C)c(=O)c(C)c32)c1 [Trametinib] (partner 0.02 µM)
Outline: (§1)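 One day after seeding in 1536-well plates, lung cancer cell lines were dosed by pin tool. Dosing was either single-drug or a fixed anchor-drug dose plus five library-drug doses (not always all listed) in √10 steps. After 5 days, nuclei were stained in one fix-and-stain step and counted on 4× images, and relative viability is the nuclei count of treated wells over that of vehicle wells, given as the median of duplicate plates.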

Mirin + Phenformin = compound: N=C1NC(=O)/C(=C/c2ccc(O)cc2)S1 [Mirin] + N=C(N)NC(=N)NCCc1ccccc1 [Phenformin] (partner 250 µM)
Outline: as §1

[2] = compound: CCn1c(-c2nonc2N)nc2cnc(Oc3cccc(NC(=O)c4ccc(OCCN5CCOCC5)cc4)c3)cc21 + Cc1nc(NC(=O)N2CCC[C@H]2C(N)=O)sc1-c1ccnc(C(C)(C)C(F)(F)F)c1 [Alpelisib] (partner 2 µM)
Outline: as §1

[3] = compound: CCC1=CN=CN=C1N2CCN(CC2)CC3=NC4=C(N3)C=C(C=C4)C(F)(F)F + CS(=O)(=O)N1CCN(Cc2cc3nc(-c4cccc5[nH]ncc45)nc(N4CCOCC4)c3s2)CC1 [Pictilisib] (partner 1 µM)
Outline: as §1

Work on NCI-H2009 yielded a relative viability ([1]; first compound 0.04 µM) of 0.346, a relative viability ([1]; first compound 0.1265 µM) of 0.299 and a relative viability ([1]; first compound 0.4 µM) of 0.281. For the same cell line, the relative viability ([1]; first compound 1.265 µM) was 0.182, the relative viability ([1]; first compound 4 µM) was 0.246 and the relative viability (Mirin + Phenformin; first compound 0.25 µM) was 0.485. The relative viability (Mirin + Phenformin; first compound 0.7906 µM) was 0.573, the relative viability (Mirin + Phenformin; first compound 2.5 µM) was 0.522 and the relative viability (Mirin + Phenformin; first compound 7.906 µM) was 0.411. The relative viability (Mirin + Phenformin; first compound 25 µM) was 0.526, the relative viability ([2]; first compound 0.04 µM) was 1.01 and the relative viability ([2]; first compound 0.1265 µM) was 0.987. The relative viability ([2]; first compound 0.4 µM) was 0.857, the relative viability ([2]; first compound 1.265 µM) was 0.745 and the relative viability ([2]; first compound 4 µM) was 0.5. It also gave a relative viability ([3]; first compound 0.04 µM) of 0.821, a relative viability ([3]; first compound 0.1265 µM) of 0.824 and a relative viability ([3]; first compound 0.4 µM) of 0.826. The relative viability ([3]; first compound 1.265 µM) was 0.514 and the relative viability ([3]; first compound 4 µM) was 0.544.

With NCI-H2023 the relative viability ([1]; first compound 0.04 µM) was 0.533, the relative viability ([1]; first compound 0.1265 µM) was 0.53 and the relative viability ([1]; first compound 0.4 µM) was 0.527. It also gave a relative viability ([1]; first compound 1.265 µM) of 0.513, a relative viability ([1]; first compound 4 µM) of 0.453 and a relative viability (Mirin + Phenformin; first compound 0.25 µM) of 0.419. The relative viability (Mirin + Phenformin; first compound 0.7906 µM) was 0.461, the relative viability (Mirin + Phenformin; first compound 2.5 µM) was 0.442 and the relative viability (Mirin + Phenformin; first compound 7.906 µM) was 0.426. The relative viability (Mirin + Phenformin; first compound 25 µM) was 0.418, the relative viability ([2]; first compound 0.04 µM) was 0.715 and the relative viability ([2]; first compound 0.1265 µM) was 0.666. The relative viability ([2]; first compound 0.4 µM) was 0.66, the relative viability ([2]; first compound 1.265 µM) was 0.549 and the relative viability ([2]; first compound 4 µM) was 0.425. It also gave a relative viability ([3]; first compound 0.04 µM) of 0.274, a relative viability ([3]; first compound 0.1265 µM) of 0.225 and a relative viability ([3]; first compound 0.4 µM) of 0.216. It also gave a relative viability ([3]; first compound 1.265 µM) of 0.192 and a relative viability ([3]; first compound 4 µM) of 0.319.

In the case of NCI-H2085, the relative viability ([1]; first compound 0.04 µM) is reported as 0.456, the relative viability ([1]; first compound 0.1265 µM) is reported as 0.369 and the relative viability ([1]; first compound 0.4 µM) is reported as 0.401. The relative viability ([1]; first compound 1.265 µM) was 0.43, the relative viability ([1]; first compound 4 µM) was 0.491 and the relative viability (Mirin + Phenformin; first compound 0.25 µM) was 0.804. It also gave a relative viability (Mirin + Phenformin; first compound 0.7906 µM) of 0.756, a relative viability (Mirin + Phenformin; first compound 2.5 µM) of 0.749 and a relative viability (Mirin + Phenformin; first compound 7.906 µM) of 0.655. For the same cell line, the relative viability (Mirin + Phenformin; first compound 25 µM) was 0.654, the relative viability ([2]; first compound 0.04 µM) was 1.15 and the relative viability ([2]; first compound 0.1265 µM) was 0.959. For the same cell line, the relative viability ([2]; first compound 0.4 µM) was 0.86, the relative viability ([2]; first compound 1.265 µM) was 0.869 and the relative viability ([2]; first compound 4 µM) was 0.845. The relative viability ([3]; first compound 0.04 µM) was 0.468, the relative viability ([3]; first compound 0.1265 µM) was 0.426 and the relative viability ([3]; first compound 0.4 µM) was 0.412. The relative viability ([3]; first compound 1.265 µM) was 0.296 and the relative viability ([3]; first compound 4 µM) was 0.429.

NCI-H2087 was tested, and the relative viability ([1]; first compound 0.04 µM) was 0.172, the relative viability ([1]; first compound 0.1265 µM) was 0.226 and the relative viability ([1]; first compound 0.4 µM) was 0.244. For the same cell line, the relative viability ([1]; first compound 1.265 µM) was 0.215, the relative viability ([1]; first compound 4 µM) was 0.189 and the relative viability (Mirin + Phenformin; first compound 0.25 µM) was 0.494. It also gave a relative viability (Mirin + Phenformin; first compound 0.7906 µM) of 0.559, a relative viability (Mirin + Phenformin; first compound 2.5 µM) of 0.454 and a relative viability (Mirin + Phenformin; first compound 7.906 µM) of 0.429. For the same cell line, the relative viability (Mirin + Phenformin; first compound 25 µM) was 0.613, the relative viability ([2]; first compound 0.1265 µM) was 0.767 and the relative viability ([2]; first compound 0.4 µM) was 0.886. It also gave a relative viability ([2]; first compound 1.265 µM) of 0.838, a relative viability ([2]; first compound 4 µM) of 0.524 and a relative viability ([3]; first compound 0.04 µM) of 0.852. It also gave a relative viability ([3]; first compound 0.1265 µM) of 0.906, a relative viability ([3]; first compound 0.4 µM) of 0.883 and a relative viability ([3]; first compound 1.265 µM) of 0.819. It also gave a relative viability ([3]; first compound 4 µM) of 0.653.

With NCI-H2126 the relative viability ([1]; first compound 0.04 µM) was 0.601, the relative viability ([1]; first compound 0.1265 µM) was 0.546 and the relative viability ([1]; first compound 0.4 µM) was 0.565. The relative viability ([1]; first compound 1.265 µM) was 0.536, the relative viability ([1]; first compound 4 µM) was 0.513 and the relative viability (Mirin + Phenformin; first compound 0.25 µM) was 0.549. The relative viability (Mirin + Phenformin; first compound 0.7906 µM) was 0.471, the relative viability (Mirin + Phenformin; first compound 2.5 µM) was 0.509 and the relative viability (Mirin + Phenformin; first compound 7.906 µM) was 0.546. For the same cell line, the relative viability (Mirin + Phenformin; first compound 25 µM) was 0.532, the relative viability ([2]; first compound 0.04 µM) was 0.804 and the relative viability ([2]; first compound 0.1265 µM) was 0.703. The relative viability ([2]; first compound 0.4 µM) was 0.728, the relative viability ([2]; first compound 1.265 µM) was 0.822 and the relative viability ([2]; first compound 4 µM) was 0.789. The relative viability ([3]; first compound 0.04 µM) was 0.518, the relative viability ([3]; first compound 0.1265 µM) was 0.496 and the relative viability ([3]; first compound 0.4 µM) was 0.493. The relative viability ([3]; first compound 1.265 µM) was 0.442 and the relative viability ([3]; first compound 4 µM) was 0.496.

With NCI-H2170 the relative viability ([1]; first compound 0.04 µM) was 0.946, the relative viability ([1]; first compound 0.1265 µM) was 0.911 and the relative viability ([1]; first compound 0.4 µM) was 0.873. It also gave a relative viability ([1]; first compound 1.265 µM) of 0.777, a relative viability ([1]; first compound 4 µM) of 0.851 and a relative viability (Mirin + Phenformin; first compound 0.25 µM) of 0.449. For the same cell line, the relative viability (Mirin + Phenformin; first compound 0.7906 µM) was 0.439, the relative viability (Mirin + Phenformin; first compound 2.5 µM) was 0.426 and the relative viability (Mirin + Phenformin; first compound 7.906 µM) was 0.377. It also gave a relative viability (Mirin + Phenformin; first compound 25 µM) of 0.413, a relative viability ([2]; first compound 0.04 µM) of 0.748 and a relative viability ([2]; first compound 0.1265 µM) of 0.747. For the same cell line, the relative viability ([2]; first compound 0.4 µM) was 0.912, the relative viability ([2]; first compound 1.265 µM) was 0.719 and the relative viability ([2]; first compound 4 µM) was 0.817. For the same cell line, the relative viability ([3]; first compound 0.04 µM) was 0.303, the relative viability ([3]; first compound 0.1265 µM) was 0.304 and the relative viability ([3]; first compound 0.4 µM) was 0.274. The relative viability ([3]; first compound 1.265 µM) was 0.289 and the relative viability ([3]; first compound 4 µM) was 0.325.

NCI-H2228 gave a relative viability ([1]; first compound 0.1265 µM) of 0.471, a relative viability ([1]; first compound 0.4 µM) of 0.397 and a relative viability ([1]; first compound 1.265 µM) of 0.221. The relative viability ([1]; first compound 4 µM) was 0.586, the relative viability (Mirin + Phenformin; first compound 0.25 µM) was 0.377 and the relative viability (Mirin + Phenformin; first compound 0.7906 µM) was 0.299. For the same cell line, the relative viability (Mirin + Phenformin; first compound 2.5 µM) was 0.303, the relative viability (Mirin + Phenformin; first compound 7.906 µM) was 0.295 and the relative viability (Mirin + Phenformin; first compound 25 µM) was 0.309. The relative viability ([2]; first compound 0.04 µM) was 1.14, the relative viability ([2]; first compound 0.1265 µM) was 0.998 and the relative viability ([2]; first compound 0.4 µM) was 0.776. The relative viability ([2]; first compound 1.265 µM) was 0.732, the relative viability ([2]; first compound 4 µM) was 0.644 and the relative viability ([3]; first compound 0.04 µM) was 0.383. The relative viability ([3]; first compound 0.1265 µM) was 0.397, the relative viability ([3]; first compound 0.4 µM) was 0.297 and the relative viability ([3]; first compound 1.265 µM) was 0.309. The relative viability ([3]; first compound 4 µM) was 0.436.

Work on NCI-H2347 yielded a relative viability ([1]; first compound 0.04 µM) of 0.295, a relative viability ([1]; first compound 0.1265 µM) of 0.333 and a relative viability ([1]; first compound 0.4 µM) of 0.313. The relative viability ([1]; first compound 1.265 µM) was 0.249, the relative viability ([1]; first compound 4 µM) was 0.293 and the relative viability (Mirin + Phenformin; first compound 0.25 µM) was 0.334. The relative viability (Mirin + Phenformin; first compound 0.7906 µM) was 0.328, the relative viability (Mirin + Phenformin; first compound 2.5 µM) was 0.52 and the relative viability (Mirin + Phenformin; first compound 7.906 µM) was 0.453. It also gave a relative viability (Mirin + Phenformin; first compound 25 µM) of 0.552, a relative viability ([2]; first compound 0.04 µM) of 1.12 and a relative viability ([2]; first compound 0.1265 µM) of 1.06. The relative viability ([2]; first compound 0.4 µM) was 0.906, the relative viability ([2]; first compound 1.265 µM) was 0.511 and the relative viability ([2]; first compound 4 µM) was 0.588. It also gave a relative viability ([3]; first compound 0.04 µM) of 0.58, a relative viability ([3]; first compound 0.1265 µM) of 0.591 and a relative viability ([3]; first compound 0.4 µM) of 0.652. The relative viability ([3]; first compound 4 µM) was 0.671.
